Structures are written as SMILES.

For this assay, the system named is ER-alpha MCF7. In words: ER-alpha MCF7 HCS EC50; stated as measured by in vitro cell proliferation assays of Examples 902 and 903. Type of assay: cell-based. As to conditions: Homo sapiens, MCF7, MCF7 cells; Table 2. An outline of the steps: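 MCF7 cells seeded 1000-2000 cells/well for 16 h, then treated with nine-point 1:2 DMSO dilution series in quadruplicate at 37 °C, 5% CO2 for 4 days. Viable cells quantified by CellTiter-Glo ATP luminescence; EC50 calculated. Controls: fulvestrant at final 100 nM, DMSO 0.2% v/v.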

As for `C[C@@H]1Cc2c([nH]c3cccc(F)c23)[C@@H](c2c(F)cc(NC3CN(CCCF)C3)cc2F)N1C[C@@](C)(F)CO` [Example 400, (R)-3-((1R,3R)-1-(2,6-difluoro-4-((1-(3-fluoropropyl)azetidin-3-yl)amino)phenyl)-5-fluoro-3-methyl-3,4-dihydro-1H-pyrido[3,4-b]indol-2(9H)-yl)-2-fluoro-2-methylpropan-1-ol], the EC50 is 0.023 nM.
`C[C@H]1Cc2c([nH]c3cccc(F)c23)[C@H](c2c(F)cc(NC3CN(CCCF)C3)cc2F)N1C[C@](C)(F)CO` [Example 401, (S)-3-((1S,3S)-1-(2,6-difluoro-4-((1-(3-fluoropropyl)azetidin-3-yl)amino)phenyl)-5-fluoro-3-methyl-3,4-dihydro-1H-pyrido[3,4-b]indol-2(9H)-yl)-2-fluoro-2-methylpropan-1-ol]: the EC50 came to 2.4 nM.
Consider `C[C@@H]1Cc2c([nH]c3ccccc23)[C@@H](c2c(F)cc(OCCN3CC(CF)C3)cc2F)N1C[C@H](CO)CF` [Example 402, (R)-3-((1R,3R)-1-(2,6-difluoro-4-(2-(3-(fluoromethyl)azetidin-1-yl)ethoxy)phenyl)-3-methyl-3,4-dihydro-1H-pyrido[3,4-b]indol-2(9H)-yl)-2-(fluoromethyl)propan-1-ol], for which the EC50 was determined as 0.032 nM.
Take `C[C@@H]1Cc2c([nH]c3ccccc23)[C@@H](c2c(F)cc(OCCN3CC(CF)C3)cc2F)N1C[C@@H](CO)CF` [Example 403, (S)-3-((1R,3R)-1-(2,6-difluoro-4-(2-(3-(fluoromethyl)azetidin-1-yl)ethoxy)phenyl)-3-methyl-3,4-dihydro-1H-pyrido[3,4-b]indol-2(9H)-yl)-2-(fluoromethyl)propan-1-ol]: the EC50 was found to be 0.13 nM.
Turning to `C[C@@H]1Cc2c([nH]c3ccccc23)[C@@H](c2c(F)cc(N(C)C3CN(CCCF)C3)cc2F)N1CC(C)(C)F` [Example 404, N-(3,5-difluoro-4-((1R,3R)-2-(2-fluoro-2-methylpropyl)-3-methyl-2,3,4,9-tetrahydro-1H-pyrido[3,4-b]indol-1-yl)phenyl)-1-(3-fluoropropyl)-N-methylazetidin-3-amine], the EC50 was determined as 0.745 nM.
Turning to `CC1(C)Cc2c([nH]c3ccccc23)[C@@H](c2c(F)cc(NC3CN(CCCF)C3)cc2F)N1CC(F)F` [Example 405, (R)-N-(4-(2-(2,2-difluoroethyl)-3,3-dimethyl-2,3,4,9-tetrahydro-1H-pyrido[3,4-b]indol-1-yl)-3,5-difluorophenyl)-1-(3-fluoropropyl)azetidin-3-amine], the EC50 was found to be 0.23 nM.
As for `CC1(C)Cc2c([nH]c3ccccc23)[C@H](c2c(F)cc(NC3CN(CCCF)C3)cc2F)N1CC(F)F` [Example 406, (S)-N-(4-(2-(2,2-difluoroethyl)-3,3-dimethyl-2,3,4,9-tetrahydro-1H-pyrido[3,4-b]indol-1-yl)-3,5-difluorophenyl)-1-(3-fluoropropyl)azetidin-3-amine], the EC50 is 1.8 nM.
In the case of `C[C@@H]1Cc2c([nH]c3cccc(F)c23)[C@@H](c2c(F)cc(NC3CN(CCCF)C3)cc2F)N1CC(F)(F)F` [Example 407, N-(3,5-difluoro-4-((1R,3R)-5-fluoro-3-methyl-2-(2,2,2-trifluoroethyl)-2,3,4,9-tetrahydro-1H-pyrido[3,4-b]indol-1-yl)phenyl)-1-(3-fluoropropyl)azetidin-3-amine], the EC50 is 0.12 nM.
Turning to `C[C@H]1Cc2c([nH]c3cccc(F)c23)[C@H](c2c(F)cc(NC3CN(CCCF)C3)cc2F)N1CC(F)(F)F` [Example 408, N-(3,5-difluoro-4-((1S,3S)-5-fluoro-3-methyl-2-(2,2,2-trifluoroethyl)-2,3,4,9-tetrahydro-1H-pyrido[3,4-b]indol-1-yl)phenyl)-1-(3-fluoropropyl)azetidin-3-amine], the 50% effective concentration (EC50) worked out at 6.3 nM.
Regarding `C[C@H]1Cc2c([nH]c3c(F)cccc23)[C@H](c2c(F)cc(NC3CN(CCCF)C3)cc2F)N1CC(F)(F)F` [Example 409, N-(3,5-difluoro-4-((1S,3S)-8-fluoro-3-methyl-2-(2,2,2-trifluoroethyl)-2,3,4,9-tetrahydro-1H-pyrido[3,4-b]indol-1-yl)phenyl)-1-(3-fluoropropyl)azetidin-3-amine], the EC50 amounted to 26 nM.
The result for `C[C@@H]1Cc2c([nH]c3c(F)cccc23)[C@@H](c2c(F)cc(NC3CN(CCCF)C3)cc2F)N1CC(F)(F)F` [Example 410, N-(3,5-difluoro-4-((1R,3R)-8-fluoro-3-methyl-2-(2,2,2-trifluoroethyl)-2,3,4,9-tetrahydro-1H-pyrido[3,4-b]indol-1-yl)phenyl)-1-(3-fluoropropyl)azetidin-3-amine] reads 0.12 nM; that for `C[C@@H]1Cc2c([nH]c3ccccc23)[C@@H](c2c(F)cc(OC3CN(CCCF)C3)cc2F)N1CC1(F)COC1` [Example 411, (1R,3R)-1-(2,6-difluoro-4-(1-(3-fluoropropyl)azetidin-3-yloxy)phenyl)-2-((3-fluorooxetan-3-yl)methyl)-3-methyl-2,3,4,9-tetrahydro-1H-pyrido[3,4-b]indole], 0.07 nM.
With `C[C@H]1Cc2c([nH]c3cc(F)ccc23)[C@H](c2c(F)cc(NC3CN(CCCF)C3)cc2F)N1C[C@](C)(F)CO` [Example 412, (S)-3-((1S,3S)-1-(2,6-difluoro-4-((1-(3-fluoropropyl)azetidin-3-yl)amino)phenyl)-7-fluoro-3-methyl-3,4-dihydro-1H-pyrido[3,4-b]indol-2(9H)-yl)-2-fluoro-2-methylpropan-1-ol], the EC50 turned out to be 1.3 nM.
As to `C[C@@H]1Cc2c([nH]c3cc(F)ccc23)[C@@H](c2c(F)cc(NC3CN(CCCF)C3)cc2F)N1C[C@@](C)(F)CO` [Example 413, (R)-3-((1R,3R)-1-(2,6-difluoro-4-((1-(3-fluoropropyl)azetidin-3-yl)amino)phenyl)-7-fluoro-3-methyl-3,4-dihydro-1H-pyrido[3,4-b]indol-2(9H)-yl)-2-fluoro-2-methylpropan-1-ol], the EC50 came to 0.018 nM.
As to `C[C@@H]1Cc2c([nH]c3cc(F)ccc23)[C@@H](c2c(F)cc(NC3CN(CCCF)C3)cc2F)N1C[C@](C)(F)CO` [Example 414, (S)-3-((1R,3R)-1-(2,6-difluoro-4-((1-(3-fluoropropyl)azetidin-3-yl)amino)phenyl)-7-fluoro-3-methyl-3,4-dihydro-1H-pyrido[3,4-b]indol-2(9H)-yl)-2-fluoro-2-methylpropan-1-ol], the EC50 was 0.12 nM.
In the case of `C[C@H]1Cc2c([nH]c3cc(F)ccc23)[C@H](c2c(F)cc(NC3CN(CCCF)C3)cc2F)N1C[C@@](C)(F)CO` [Example 415, (R)-3-((1S,3S)-1-(2,6-difluoro-4-((1-(3-fluoropropyl)azetidin-3-yl)amino)phenyl)-7-fluoro-3-methyl-3,4-dihydro-1H-pyrido[3,4-b]indol-2(9H)-yl)-2-fluoro-2-methylpropan-1-ol], the EC50 came out at 9.5 nM.
For `C[C@@H]1Cc2c([nH]c3cccc(F)c23)[C@@H](c2c(F)cc(NC3CN(CCCF)C3)cc2F)N1CC(F)(F)CO` [Example 416, 3-((1R,3R)-1-(2,6-difluoro-4-((1-(3-fluoropropyl)azetidin-3-yl)amino)phenyl)-5-fluoro-3-methyl-3,4-dihydro-1H-pyrido[3,4-b]indol-2(9H)-yl)-2,2-difluoropropan-1-ol], the concentration for a half-maximal effect (EC50) was determined as 0.024 nM.

In general, EC50 refers to the midpoint of the concentration-response curve.

Source of the values: US20250114338A1, “TETRAHYDRO-PYRIDO[3,4-b]INDOLE ESTROGEN RECEPTOR MODULATORS AND USES THEREOF” (Genentech, Inc., priority 2014, published 2025).
